Measurements from ChEMBL document CHEMBL1151530, “Characterization of the in vitro oxidative metabolites of the COX-2 selective inhibitor L-766,112” (Bioorg Med Chem Lett, 1997).

Columns and labels:
[1] = species on record: Macaca mulatta; test: Percentage recovery in rhesus monkey hepatic microsomal fractions under oxidative conditions after 1 hour; conditions: liver microsomes
[2] = Percentage recovery in rat hepatic microsomal fractions under oxidative conditions after 1 hour; format: ADME; conditions: liver microsomes, read-out: Recovery

CS(=O)(=O)c1ccc(-c2c(-c3ccccc3)nc3sccn23)cc1
remaining at 1 h [1]: 65%
remaining at 1 h [2]: 75%
